{"source": "paper PMC9132415", "about": "“Identification of 1H-pyrazolo[3,4-b]pyridine derivatives as novel and potent TBK1 inhibitors: design, synthesis, biological evaluation, and molecular docking study” (Journal of Enzyme Inhibition and Medicinal Chemistry, 2022)", "key": {"ALK": {"target": "ALK (Homo sapiens, UniProt Q9UM73)", "test": "Kinase selectivity profile (SelectScreen)", "format": "biochemical", "conditions": "remaining kinase activity at 1.0 μM", "description": "(§1) Compound 15y was evaluated for their inhibitory activities against 31 kinases at a single concentration (1 µM). Two different assay platforms were available for profiling—activity and binding. The Z′-LYTE and Adapta kinase activity assays were used most extensively for profiling and a smaller subset of kinases might be profiled using the LanthaScreen Eu Kinase Binding Assays."}, "ASK1": {"target": "ASK1 (Homo sapiens, UniProt Q99683)", "test": "Kinase selectivity profile (SelectScreen)", "format": "biochemical", "conditions": "remaining kinase activity at 1.0 μM", "description": "as §1"}, "CK1γ1": {"target": "CK1γ1 (Homo sapiens, UniProt Q9HCP0)", "sequence (Q9HCP0 whole entry)": "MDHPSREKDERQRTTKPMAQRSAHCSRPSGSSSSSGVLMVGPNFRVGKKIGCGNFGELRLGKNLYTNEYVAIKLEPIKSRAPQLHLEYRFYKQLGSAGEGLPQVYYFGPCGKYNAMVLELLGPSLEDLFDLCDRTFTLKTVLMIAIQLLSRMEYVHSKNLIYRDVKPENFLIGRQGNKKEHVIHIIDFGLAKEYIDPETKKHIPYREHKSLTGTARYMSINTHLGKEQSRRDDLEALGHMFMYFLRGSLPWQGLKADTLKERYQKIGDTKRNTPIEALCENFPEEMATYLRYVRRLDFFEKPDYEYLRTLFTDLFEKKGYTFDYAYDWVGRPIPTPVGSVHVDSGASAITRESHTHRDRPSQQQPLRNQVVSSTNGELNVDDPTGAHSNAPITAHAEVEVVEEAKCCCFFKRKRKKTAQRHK", "test": "Kinase selectivity profile (SelectScreen)", "format": "biochemical", "conditions": "remaining kinase activity at 1.0 μM", "description": "as §1"}, "EGFR": {"target": "EGFR (Homo sapiens, UniProt P00533)", "test": "Kinase selectivity profile (SelectScreen)", "format": "biochemical", "conditions": "remaining kinase activity at 1.0 μM", "description": "as §1"}, "EphA5": {"target": "EphA5 (Homo sapiens, UniProt P54756)", "test": "Kinase selectivity profile (SelectScreen)", "format": "biochemical", "conditions": "remaining kinase activity at 1.0 μM", "description": "as §1"}, "EphB4": {"target": "EphB4 (Homo sapiens, UniProt P54760)", "test": "Kinase selectivity profile (SelectScreen)", "format": "biochemical", "conditions": "remaining kinase activity at 1.0 μM", "description": "as §1"}, "IGF-1R": {"target": "IGF-1R (Homo sapiens, UniProt P08069)", "test": "Kinase selectivity profile (SelectScreen)", "format": "biochemical", "conditions": "remaining kinase activity at 1.0 μM", "description": "as §1"}, "IKKβ": {"target": "IKKβ (Homo sapiens, UniProt O14920)", "test": "Kinase selectivity profile (SelectScreen)", "format": "biochemical", "conditions": "remaining kinase activity at 1.0 μM", "description": "as §1"}, "MAPKAP-K2": {"target": "MAPKAP-K2 (Homo sapiens, UniProt P49137)", "test": "Kinase selectivity profile (SelectScreen)", "format": "biochemical", "conditions": "remaining kinase activity at 1.0 μM", "description": "as §1"}, "MEK1": {"target": "MEK1 (Homo sapiens, UniProt Q02750)", "test": "Kinase selectivity profile (SelectScreen)", "format": "biochemical", "conditions": "remaining kinase activity at 1.0 μM", "description": "as §1"}, "PDGFRβ": {"target": "PDGFRβ (Homo sapiens, UniProt P09619)", "test": "Kinase selectivity profile (SelectScreen)", "format": "biochemical", "conditions": "remaining kinase activity at 1.0 μM", "description": "as §1"}, "PI3K(p110a/p85a)": {"target": "PI3K(p110a/p85a) (Homo sapiens, UniProt P42336)", "test": "Kinase selectivity profile (SelectScreen)", "format": "biochemical", "conditions": "remaining kinase activity at 1.0 μM", "description": "as §1"}, "PI3K(p110b/p85a)": {"target": "PI3K(p110b/p85a) (Homo sapiens, UniProt P42338)", "sequence (P42338 whole entry)": "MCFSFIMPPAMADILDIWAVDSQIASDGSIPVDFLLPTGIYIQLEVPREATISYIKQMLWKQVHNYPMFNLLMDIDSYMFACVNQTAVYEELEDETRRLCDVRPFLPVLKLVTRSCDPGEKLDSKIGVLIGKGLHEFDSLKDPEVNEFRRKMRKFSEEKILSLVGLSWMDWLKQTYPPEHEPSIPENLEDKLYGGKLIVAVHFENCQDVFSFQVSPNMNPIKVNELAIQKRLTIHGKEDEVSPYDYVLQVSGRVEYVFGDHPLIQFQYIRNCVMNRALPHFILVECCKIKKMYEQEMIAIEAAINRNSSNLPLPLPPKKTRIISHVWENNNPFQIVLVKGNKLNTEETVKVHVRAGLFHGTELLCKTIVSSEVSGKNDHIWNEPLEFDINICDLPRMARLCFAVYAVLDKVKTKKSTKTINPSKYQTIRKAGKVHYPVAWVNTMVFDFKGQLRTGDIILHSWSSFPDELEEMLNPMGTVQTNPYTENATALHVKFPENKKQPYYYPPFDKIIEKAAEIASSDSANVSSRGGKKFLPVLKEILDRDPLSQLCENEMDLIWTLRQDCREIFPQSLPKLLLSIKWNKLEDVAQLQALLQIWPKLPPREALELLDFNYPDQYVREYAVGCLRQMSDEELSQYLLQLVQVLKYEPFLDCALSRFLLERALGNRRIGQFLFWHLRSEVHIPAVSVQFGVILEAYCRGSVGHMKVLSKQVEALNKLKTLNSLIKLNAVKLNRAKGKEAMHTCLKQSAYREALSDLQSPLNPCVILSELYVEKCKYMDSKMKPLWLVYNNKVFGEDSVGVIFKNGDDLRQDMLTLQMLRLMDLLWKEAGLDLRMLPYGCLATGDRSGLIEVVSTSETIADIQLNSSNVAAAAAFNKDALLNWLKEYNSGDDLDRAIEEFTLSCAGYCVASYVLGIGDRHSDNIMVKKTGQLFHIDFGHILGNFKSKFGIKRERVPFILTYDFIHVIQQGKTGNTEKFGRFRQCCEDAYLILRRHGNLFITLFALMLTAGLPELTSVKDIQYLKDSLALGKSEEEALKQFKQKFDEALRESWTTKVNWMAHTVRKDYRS", "sequence (P27986 whole entry partner)": "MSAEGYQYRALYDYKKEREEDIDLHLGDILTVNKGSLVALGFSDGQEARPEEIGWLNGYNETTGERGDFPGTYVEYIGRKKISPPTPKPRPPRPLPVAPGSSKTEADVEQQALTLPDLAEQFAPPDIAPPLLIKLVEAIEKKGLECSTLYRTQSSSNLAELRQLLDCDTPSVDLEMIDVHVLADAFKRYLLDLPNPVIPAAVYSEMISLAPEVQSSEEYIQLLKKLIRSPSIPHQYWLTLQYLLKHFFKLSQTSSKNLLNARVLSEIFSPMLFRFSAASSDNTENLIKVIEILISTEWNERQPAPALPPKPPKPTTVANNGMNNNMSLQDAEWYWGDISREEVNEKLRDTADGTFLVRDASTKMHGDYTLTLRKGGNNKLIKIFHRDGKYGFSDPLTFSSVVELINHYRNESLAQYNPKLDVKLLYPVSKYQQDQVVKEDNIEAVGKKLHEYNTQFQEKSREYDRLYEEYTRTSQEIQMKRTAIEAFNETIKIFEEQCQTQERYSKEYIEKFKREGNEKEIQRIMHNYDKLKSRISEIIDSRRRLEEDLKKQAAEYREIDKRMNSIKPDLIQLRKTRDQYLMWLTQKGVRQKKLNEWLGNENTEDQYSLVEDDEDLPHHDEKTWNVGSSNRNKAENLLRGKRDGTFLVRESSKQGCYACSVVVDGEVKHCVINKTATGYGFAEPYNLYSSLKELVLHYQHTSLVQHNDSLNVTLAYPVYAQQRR", "test": "Kinase selectivity profile (SelectScreen)", "format": "biochemical", "conditions": "remaining kinase activity at 1.0 μM", "description": "as §1"}, "PI3K(p120g)": {"target": "PI3K(p120g) (Homo sapiens, UniProt P48736)", "test": "Kinase selectivity profile (SelectScreen)", "format": "biochemical", "conditions": "remaining kinase activity at 1.0 μM", "description": "as §1"}, "PKA": {"target": "PKA (Homo sapiens, UniProt P17612)", "test": "Kinase selectivity profile (SelectScreen)", "format": "biochemical", "conditions": "remaining kinase activity at 1.0 μM", "description": "as §1"}, "PKBα": {"target": "PKBα (Homo sapiens, UniProt P31749)", "sequence (P31749 whole entry)": "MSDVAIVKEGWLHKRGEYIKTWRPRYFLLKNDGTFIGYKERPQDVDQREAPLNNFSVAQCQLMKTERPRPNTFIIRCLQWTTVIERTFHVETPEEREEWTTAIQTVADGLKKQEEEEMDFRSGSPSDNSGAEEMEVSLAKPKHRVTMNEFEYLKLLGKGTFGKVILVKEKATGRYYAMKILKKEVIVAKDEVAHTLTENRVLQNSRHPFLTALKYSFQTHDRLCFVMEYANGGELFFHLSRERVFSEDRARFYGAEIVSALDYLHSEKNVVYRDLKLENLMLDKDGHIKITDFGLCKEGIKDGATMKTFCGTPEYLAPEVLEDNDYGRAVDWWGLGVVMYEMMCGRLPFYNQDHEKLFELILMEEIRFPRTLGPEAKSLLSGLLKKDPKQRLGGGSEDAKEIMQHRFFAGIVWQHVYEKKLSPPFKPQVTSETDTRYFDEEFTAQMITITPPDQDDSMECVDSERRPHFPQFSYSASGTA", "test": "Kinase selectivity profile (SelectScreen)", "format": "biochemical", "conditions": "remaining kinase activity at 1.0 μM", "description": "as §1"}, "PKCα": {"target": "PKCα (Homo sapiens, UniProt P17252)", "test": "Kinase selectivity profile (SelectScreen)", "format": "biochemical", "conditions": "remaining kinase activity at 1.0 μM", "description": "as §1"}, "PKCθ": {"target": "PKCθ (Homo sapiens, UniProt Q04759)", "test": "Kinase selectivity profile (SelectScreen)", "format": "biochemical", "conditions": "remaining kinase activity at 1.0 μM", "description": "as §1"}, "PKG1α": {"target": "PKG1α (Homo sapiens, UniProt Q13976)", "sequence (Q13976 whole entry)": "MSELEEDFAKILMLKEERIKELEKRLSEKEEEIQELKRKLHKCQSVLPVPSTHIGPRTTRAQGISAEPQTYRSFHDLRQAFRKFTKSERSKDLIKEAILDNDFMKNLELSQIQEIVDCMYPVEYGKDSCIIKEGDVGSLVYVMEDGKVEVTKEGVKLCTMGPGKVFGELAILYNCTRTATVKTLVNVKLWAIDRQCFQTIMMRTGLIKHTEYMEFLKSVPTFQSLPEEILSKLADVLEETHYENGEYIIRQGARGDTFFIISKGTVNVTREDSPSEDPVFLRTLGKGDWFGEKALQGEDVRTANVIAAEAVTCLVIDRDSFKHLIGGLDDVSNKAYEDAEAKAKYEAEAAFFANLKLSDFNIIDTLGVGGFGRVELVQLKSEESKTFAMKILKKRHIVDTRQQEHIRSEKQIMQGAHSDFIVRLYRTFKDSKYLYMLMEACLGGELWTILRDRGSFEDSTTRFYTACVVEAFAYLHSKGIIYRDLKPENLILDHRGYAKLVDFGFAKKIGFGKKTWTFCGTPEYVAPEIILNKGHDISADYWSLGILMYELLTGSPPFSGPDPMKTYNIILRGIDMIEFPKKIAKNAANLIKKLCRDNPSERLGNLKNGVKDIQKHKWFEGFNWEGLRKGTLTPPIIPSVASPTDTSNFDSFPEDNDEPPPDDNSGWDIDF", "test": "Kinase selectivity profile (SelectScreen)", "format": "biochemical", "conditions": "remaining kinase activity at 1.0 μM", "description": "as §1"}, "PLK3": {"target": "PLK3 (Homo sapiens, UniProt Q9H4B4)", "test": "Kinase selectivity profile (SelectScreen)", "format": "biochemical", "conditions": "remaining kinase activity at 1.0 μM", "description": "as §1"}, "PRAK": {"target": "PRAK (Homo sapiens, UniProt Q8IW41)", "sequence (Q8IW41 whole entry)": "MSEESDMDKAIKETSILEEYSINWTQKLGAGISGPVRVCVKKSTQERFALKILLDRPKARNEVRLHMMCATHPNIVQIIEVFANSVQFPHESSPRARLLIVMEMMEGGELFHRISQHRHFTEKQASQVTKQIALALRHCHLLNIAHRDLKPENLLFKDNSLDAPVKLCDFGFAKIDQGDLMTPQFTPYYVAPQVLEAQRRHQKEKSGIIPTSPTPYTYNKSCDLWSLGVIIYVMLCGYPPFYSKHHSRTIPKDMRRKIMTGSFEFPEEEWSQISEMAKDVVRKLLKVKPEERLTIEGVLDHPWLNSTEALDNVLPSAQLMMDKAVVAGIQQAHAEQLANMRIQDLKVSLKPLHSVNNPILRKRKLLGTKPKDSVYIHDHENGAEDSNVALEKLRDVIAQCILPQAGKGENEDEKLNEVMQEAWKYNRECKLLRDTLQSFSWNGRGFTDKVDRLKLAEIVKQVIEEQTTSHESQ", "test": "Kinase selectivity profile (SelectScreen)", "format": "biochemical", "conditions": "remaining kinase activity at 1.0 μM", "description": "as §1"}, "Rse": {"target": "Rse (Homo sapiens, UniProt Q06418)", "test": "Kinase selectivity profile (SelectScreen)", "format": "biochemical", "conditions": "remaining kinase activity at 1.0 μM", "description": "as §1"}, "SAPK2a": {"target": "SAPK2a (Homo sapiens, UniProt Q16539)", "sequence (Q16539 whole entry)": "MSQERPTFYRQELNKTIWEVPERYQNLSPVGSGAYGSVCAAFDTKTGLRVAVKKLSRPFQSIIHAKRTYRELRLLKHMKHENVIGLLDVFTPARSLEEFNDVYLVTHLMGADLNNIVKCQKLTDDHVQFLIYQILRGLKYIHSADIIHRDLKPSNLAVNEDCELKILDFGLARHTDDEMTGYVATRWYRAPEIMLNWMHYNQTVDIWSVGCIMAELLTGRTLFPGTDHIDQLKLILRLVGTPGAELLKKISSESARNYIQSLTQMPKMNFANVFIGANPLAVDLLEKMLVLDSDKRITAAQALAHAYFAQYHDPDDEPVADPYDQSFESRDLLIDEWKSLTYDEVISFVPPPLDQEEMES", "test": "Kinase selectivity profile (SelectScreen)", "format": "biochemical", "conditions": "remaining kinase activity at 1.0 μM", "description": "as §1"}, "SRPK1": {"target": "SRPK1 (Homo sapiens, UniProt Q96SB4)", "test": "Kinase selectivity profile (SelectScreen)", "format": "biochemical", "conditions": "remaining kinase activity at 1.0 μM", "description": "as §1"}, "eEF-2K": {"target": "eEF-2K (Homo sapiens, UniProt O00418)", "test": "Kinase selectivity profile (SelectScreen)", "format": "biochemical", "conditions": "remaining kinase activity at 1.0 μM", "description": "as §1"}, "mTOR": {"target": "mTOR (Homo sapiens, UniProt P42345)", "test": "Kinase selectivity profile (SelectScreen)", "format": "biochemical", "conditions": "remaining kinase activity at 1.0 μM", "description": "as §1"}, "[1]": {"tested_on": "ifnb and cxcl10 gene expression in RAW264.7 cells", "test": "mRNA detection of TBK1 downstream genes (RT-PCR), LPS-stimulated RAW264.7 cells", "format": "cell-based", "conditions": "LPS-stimulated murine RAW264.7 cells"}, "A172 cells": {"tested_on": "A172 cells", "test": "Antiproliferative activity, SRB staining", "format": "cell-based", "conditions": "Homo sapiens, A 172, glioma cell line, 72 h", "description": "(§2) A172, U87MG, A375, A2058, and Panc0504 cell lines were obtained from ATCC and cultured in indicated medium according to ATCC’s instructions. Cells were seeded in 96 well-plates at a destiny of around 2000 cells per well one day prior to administrated to increasing doses of indicated compounds. After 72 h of treatment, cells were washed with PBS and were fixed by 10% trichloroacetic acid before stained by sulphorhodamine B (SRB) solution. Unstained SRB were washed away by 1% acetic acid to reduce background signals. A Tris-based solution (10 mM) were used to dissolve stained SRB and the absorbance at 540 nm was measured with SpectraMax Paradigm (Molecular Devices). Inhibition rate was calculated by the relative absorbance value of test compound wells with the average of control wells […]."}, "A2058 cells": {"tested_on": "A2058 cells", "test": "Antiproliferative activity, SRB staining", "format": "cell-based", "conditions": "Homo sapiens, melanoma cell line, 72 h", "description": "as §2"}, "A375 cells": {"tested_on": "A375 cells", "test": "Antiproliferative activity, SRB staining", "format": "cell-based", "conditions": "Homo sapiens, A-375, melanoma cell line, 72 h", "description": "as §2"}, "Panc0504 cells": {"tested_on": "Panc0504 cells", "test": "Antiproliferative activity, SRB staining", "format": "cell-based", "conditions": "Panc 05.04, pancreatic cell line, 72 h", "description": "as §2"}, "U87MG cells": {"tested_on": "U87MG cells", "test": "Antiproliferative activity, SRB staining", "format": "cell-based", "conditions": "Homo sapiens, U-87 MG, glioma cell line, 72 h", "description": "as §2"}, "[2]": {"test": "Cytotoxicity to normal cells", "format": "cell-based", "conditions": "human, human umbilical vein endothelial cells (HUVECs)", "from_the_text": "Figure S1. The cytotoxicity of compound 15y on Human Umbilical Vein Endothelial Cells\n(HUVECs). Data are representative of 3 independent experiments and are shown in mean ± SD\nvalue. Nolin fit 4-parameters model were used to fit the curve and to calculate IC50 values by\n(1 picture or pasted object on this page, not shown here)"}}, "note": "pIC50: −log10 of the molar value.", "data": [{"smiles": "Cc1nc2c(F)cc(-c3n[nH]c4ncc(-c5cccc(S(N)(=O)=O)c5)cc34)cc2n1C(C)C", "note": "[Compound 15y]", "values": [{"measurement": "%kinase activity @ 1.0 μM, ALK", "setting": "ALK", "value": 28, "unit": "%"}, {"measurement": "%kinase activity @ 1.0 μM, ASK1", "setting": "ASK1", "value": 56, "unit": "%"}, {"measurement": "%kinase activity @ 1.0 μM, CK1γ1", "setting": "CK1γ1", "value": 33, "unit": "%"}, {"measurement": "%kinase activity @ 1.0 μM, EGFR", "setting": "EGFR", "value": 66, "unit": "%"}, {"measurement": "%kinase activity @ 1.0 μM, EphA5", "setting": "EphA5", "value": 51, "unit": "%"}, {"measurement": "%kinase activity @ 1.0 μM, EphB4", "setting": "EphB4", "value": 77, "unit": "%"}, {"measurement": "%kinase activity @ 1.0 μM, IGF-1R", "setting": "IGF-1R", "value": 88, "unit": "%"}, {"measurement": "%kinase activity @ 1.0 μM, IKKβ", "setting": "IKKβ", "value": 32, "unit": "%"}, {"measurement": "%kinase activity @ 1.0 μM, MAPKAP-K2", "setting": "MAPKAP-K2", "value": 95, "unit": "%"}, {"measurement": "%kinase activity @ 1.0 μM, MEK1", "setting": "MEK1", "value": 52, "unit": "%"}, {"measurement": "%kinase activity @ 1.0 μM, PDGFRβ", "setting": "PDGFRβ", "value": 21, "unit": "%"}, {"measurement": "%kinase activity @ 1.0 μM, PI3K(p110a/p85a)", "setting": "PI3K(p110a/p85a)", "value": 69, "unit": "%"}, {"measurement": "%kinase activity @ 1.0 μM, PI3K(p110b/p85a)", "setting": "PI3K(p110b/p85a)", "value": 95, "unit": "%"}, {"measurement": "%kinase activity @ 1.0 μM, PI3K(p120g)", "setting": "PI3K(p120g)", "value": 32, "unit": "%"}, {"measurement": "%kinase activity @ 1.0 μM, PKA", "setting": "PKA", "value": 84, "unit": "%"}, {"measurement": "activity at 1 µM", "setting": "PKBα", "value": 111, "unit": "%"}, {"measurement": "%kinase activity @ 1.0 μM, PKCα", "setting": "PKCα", "value": 27, "unit": "%"}, {"measurement": "%kinase activity @ 1.0 μM, PKCθ", "setting": "PKCθ", "value": 33, "unit": "%"}, {"measurement": "%kinase activity @ 1.0 μM, PKG1α", "setting": "PKG1α", "value": 54, "unit": "%"}, {"measurement": "%kinase activity @ 1.0 μM, PLK3", "setting": "PLK3", "value": 101, "unit": "%"}, {"measurement": "%kinase activity @ 1.0 μM, PRAK", "setting": "PRAK", "value": 60, "unit": "%"}, {"measurement": "%kinase activity @ 1.0 μM, Rse", "setting": "Rse", "value": 49, "unit": "%"}, {"measurement": "%kinase activity @ 1.0 μM, SAPK2a", "setting": "SAPK2a", "value": 60, "unit": "%"}, {"measurement": "%kinase activity @ 1.0 μM, SRPK1", "setting": "SRPK1", "value": 58, "unit": "%"}, {"measurement": "%kinase activity @ 1.0 μM, eEF-2K", "setting": "eEF-2K", "value": 108, "unit": "%"}, {"measurement": "%kinase activity @ 1.0 μM, mTOR", "setting": "mTOR", "value": 30, "unit": "%"}, {"measurement": "inhibition of ifnb and cxcl10 expression", "setting": "[1]", "value": "profound activity"}, {"measurement": "pIC50", "setting": "A172 cells", "value": 5.85}, {"measurement": "pIC50", "setting": "A2058 cells", "value": 6.05}, {"measurement": "pIC50", "setting": "A375 cells", "value": 5.51}, {"measurement": "pIC50", "setting": "Panc0504 cells", "value": 5.44}, {"measurement": "pIC50", "setting": "U87MG cells", "value": 5.62}, {"measurement": "pIC50", "setting": "[2]", "value": 4.67}]}]}
